Test system: AP-1 induced transcriptional activity
Assay: Cellular Transrepressional Assay (AP-1 luciferase reporter, PMA-activated A549 cells)
Type: cell-based
Details: for AP-1 Max % inh (Cellular Transrepression Assay) / Emax: maximum inhibition; for Emax: A549, 7 h, read-out: AP-1 Max % inh (Cellular Transrepression Assay)
Method: Cellular Transrepressional Assay
To measure the ability of test molecules to inhibit AP-1 induced transcriptional activity we utilized an A549 cell which was stably transfected with a plasmid containing 7× AP-1 DNA binding sites (pAP-1-Luc plasmid, Stratagene Co. La Jolla, Calif.) followed by the gene for luciferase. Cells were activated with 10 ng/ml of […] (PMA) plus or minus test molecules for 7 hours. After 7 hours a luciferase reagent was added to measure luciferase enzymatic activity in the cell. After a 10 minute incubation of luciferase reagent with cells, luminescence was measured in a TopCount luminescence counter. Repression of AP-1 activity was calculated as the percentage decrease in the signal induced by PMA alone. Test molecules were analyzed in the concentration range from 0.1 nM to 40 μM. EC50s were determined by using standard curve fitting methods such as Excel fit (Microsoft Co.).

[1] = Homo sapiens, Cellular Transrepression Assay
[2] = Homo sapiens, A549, Cellular Transrepression Assay

Row | SMILES | EC50 (Cellular Transrepression Assay) | AP-1 Max % inh (Cellular Transrepression Assay) (Cellular Transrepression Assay) | Emax [1] | EC50 [2]
1 | CC(O)c1ccc(-c2ccc3c(n2)Oc2ccccc2C3C(C)(C)C(=O)Nc2nncs2)cc1 (mixture of isomers) [Example 239] | 12.4 nM | 44.85% | – | –
2 | CC(C)Oc1ccc(-c2ccc3c(n2)Oc2c(F)cccc2C3C(C)(C)C(=O)Nc2nncs2)cc1F (racemic) [Example 163] | 16.8 nM | 49.60% | – | –
3 | CN(C)C(=O)c1ccc(-c2ccc3c(n2)Oc2c(F)cccc2C3C(C)(C)C(=O)Nc2nncs2)cc1 (racemic) [Example 164] | 5.58 nM | 57.26% | – | –
4 | CN(C)C(=O)c1ccc(-c2ccc3c(n2)Oc2c(F)cccc2C3C(C)(C)C(=O)Nc2nncs2)cc1F (racemic) [Example 165] | 25.6 nM | 56.92% | – | –
5 | Cc1nnc(NC(=O)C(C)(C)C2c3ccc(-c4ccc(C(=O)N(C)C)c(F)c4)nc3Oc3c(F)cccc32)s1 (racemic) [Example 167] | 36.6 nM | 57.94% | – | –
6 | CN(C)C(=O)c1ccc(-c2ccc3c(n2)Oc2ccccc2[C@@H]3C2(C(=O)Nc3nncs3)CCC2)cc1 (single isomer, unassigned) [Example 480] | – | – | 44% | 27 nM
7 | CN(C)C(=O)c1ccc(-c2ccc3c(n2)Oc2ccccc2[C@H]3C2(C(=O)Nc3nncs3)CCC2)cc1 (single isomer, unassigned) [Example 481] | – | – | 33.8% | 579 nM
8 | O=C(CC1c2ccccc2Oc2ccccc21)Nc1nc(Cc2ccc(-c3ccncc3)cc2)cs1 [Example 1] | – | – | 69.3% | 157 nM
9 | O=C(CC1c2ccccc2Oc2ccccc21)Nc1nc(-c2ccc(F)c3ccccc23)cs1 [Example 2] | – | – | 42.7% | –
10 | Cc1ccc(-c2csc(NC(=O)CC3c4ccccc4Oc4ccccc43)n2)c2ccccc12 [Example 3] | – | – | 47.8% | –
11 | O=C(CC1c2ccccc2Oc2ccccc21)Nc1nc(-c2cccc3ccccc23)cs1 [Example 4] | – | – | 56.5% | –
12 | CC(C)(C(=O)Nc1nc(Cc2ccc(-c3ccncc3)cc2)cs1)C1c2ccccc2Sc2ccccc21 [Example 5] | – | – | 66% | 58.2 nM
13 | CC(C)(C(=O)Nc1nc(-c2cccc3ccccc23)cs1)C1c2ccccc2Sc2ccccc21 [Example 6] | – | – | 67.9% | 461 nM
14 | Cc1ccc(-c2csc(NC(=O)C(C)(C)C3c4ccccc4Sc4ccccc43)n2)c2ccccc12 [Example 7] | – | – | 64.9% | 303 nM
15 | CC(C)(C(=O)Nc1nc(-c2ccc(F)c3ccccc23)cs1)C1c2ccccc2Sc2ccccc21 [Example 8] | – | – | 69% | 546 nM
16 | CC(C)(C(=O)Nc1nc(Cc2ccc(-c3ccncc3)cc2)cs1)C1c2ccccc2S(=O)(=O)c2ccccc21 [Example 10] | – | – | 86.5% | 16.8 nM
17 | CC(C)(C(=O)Nc1nc(-c2ccc(F)c3ccccc23)cs1)C1c2ccccc2S(=O)(=O)c2ccccc21 [Example 11] | – | – | 68.5% | 882 nM
18 | CC(C)(C(=O)Nc1nc(-c2cccc3ccccc23)cs1)C1c2ccccc2S(=O)(=O)c2ccccc21 [Example 12] | – | – | 67.9% | 461 nM
19 | Cc1ccc(-c2csc(NC(=O)C(C)(C)C3c4ccccc4S(=O)(=O)c4ccccc43)n2)c2ccccc12 [Example 13] | – | – | 60.3% | 566 nM
20 | CC(C)(C(=O)Nc1nc(-c2cccc3ccccc23)cs1)C1c2ccccc2Cc2ccccc21 [Example 15] | – | – | 65.9% | 501 nM

Row | SMILES | EC50 (Cellular Transrepression Assay) | AP-1 Max % inh (Cellular Transrepression Assay) (Cellular Transrepression Assay) | Emax [1] | EC50 [2]
21 | Cc1ccc(-c2csc(NC(=O)C(C)(C)C3c4ccccc4Cc4ccccc43)n2)c2ccccc12 [Example 16] | – | – | 59.9% | 303 nM
22 | CC(C)(C(=O)Nc1nc(-c2ccc(F)c3ccccc23)cs1)C1c2ccccc2Cc2ccccc21 [Example 17] | – | – | 68% | 335 nM
23 | CC(C)(C(=O)Nc1nccs1)C1c2ccccc2-c2ccccc21 [Example 18] | – | – | 37.6% | 542 nM
24 | CC(C)(C(=O)Nc1nc(-c2cccc3ccccc23)cs1)C1c2ccccc2-c2ccccc21 [Example 19] | – | – | 52.7% | –
25 | Cc1ccc(-c2csc(NC(=O)C(C)(C)C3c4ccccc4-c4ccccc43)n2)c2ccccc12 [Example 20] | – | – | 46.9% | 473 nM
26 | CC(C)(C(=O)Nc1nc(-c2ccc(F)c3ccccc23)cs1)C1c2ccccc2-c2ccccc21 [Example 21] | – | – | 60.8% | –
27 | CC(C)(C(=O)Nc1nc(Cc2ccc(-c3ccncc3)cc2)cs1)C1c2ccccc2CCc2ccccc21 [Example 24] | – | – | 78.8% | 15.7 nM
28 | O=C(CC1c2ccccc2Sc2ccccc21)Nc1nc(-c2ccc(F)c3ccccc23)cs1 [Example 26] | – | – | 26.9% | –
29 | Cc1ccc(-c2csc(NC(=O)CC3c4ccccc4Sc4ccccc43)n2)c2ccccc12 [Example 27] | – | – | 15% | –
30 | O=C(CC1c2ccccc2Sc2ccccc21)Nc1nc(-c2cccc3ccccc23)cs1 [Example 28] | – | – | 43.7% | –
31 | COc1ccc(NC(=O)c2cccc(-c3csc(NC(=O)C(C)(C)C4c5ccccc5Oc5ccccc54)n3)c2)cc1Cl [Example 29] | – | – | 66.4% | 139 nM
32 | CC(C)(C(=O)Nc1nc(-c2cccc3ccccc23)cs1)C1c2ccccc2Oc2ccccc21 [Example 30] | – | – | 67.2% | 338 nM
33 | Cc1ccc(-c2csc(NC(=O)C(C)(C)C3c4ccccc4Oc4ccccc43)n2)c2ccccc12 [Example 31] | – | – | 69.4% | 179 nM
34 | CC(C)(C(=O)Nc1nc(-c2ccc(F)c3ccccc23)cs1)C1c2ccccc2Oc2ccccc21 [Example 32] | – | – | 67.6% | 302 nM
35 | COc1ccc(Cc2csc(NC(=O)C(C)(C)C3c4ccccc4Oc4ccccc43)n2)cc1 [Example 33] | – | – | 55.2% | 31.8 nM
36 | CC(C)(C(=O)Nc1nc(Cc2ccc(-c3ccncc3)cc2)cs1)C1c2ccccc2Oc2ccccc21 [Example 34] | – | – | 71.8% | 3.52 nM
37 | CC(C)(C(=O)Nc1nc(Cc2ccc(Br)cc2)cs1)C1c2ccccc2Oc2ccccc21 [Example 35] | – | – | 72.3% | 80.6 nM
38 | CC(C)(C(=O)Nc1nc(-c2ccc(F)c3ccccc23)c[nH]1)C1c2ccccc2Oc2ccccc21 [Example 38] | – | – | 70.4% | –
39 | CC(C)(C(=O)Nc1nc(-c2ccc(F)c3ccccc23)cs1)C1c2ccccc2Oc2ccc(C(F)(F)F)cc21 (centres unmarked) [Example 40] | – | – | 47.8% | 461 nM
40 | CC(C)(C(=O)Nc1nc(Cc2ccc(-c3cn[nH]c3)cc2)cs1)C1c2ccccc2Oc2ccccc21 [Example 41] | – | – | 73.8% | 5.82 nM

Row | SMILES | EC50 (Cellular Transrepression Assay) | AP-1 Max % inh (Cellular Transrepression Assay) (Cellular Transrepression Assay) | Emax [1] | EC50 [2]
41 | Cn1cc(-c2ccc(Cc3csc(NC(=O)C(C)(C)C4c5ccccc5Oc5ccccc54)n3)cc2)cn1 [Example 42] | – | – | 73.4% | 3.7 nM
42 | Cc1noc(C)c1-c1ccc(Cc2csc(NC(=O)C(C)(C)C3c4ccccc4Oc4ccccc43)n2)cc1 [Example 43] | – | – | 71.9% | 13.4 nM
43 | CC(C)(C(=O)Nc1nc(C(=O)c2ccccc2)cs1)C1c2ccccc2Oc2ccccc21 [Example 44] | – | – | 69.3% | –
44 | COc1ccc2c(c1)Oc1ccccc1C2C(C)(C)C(=O)Nc1nc(-c2ccc(F)c3ccccc23)cs1 (centres unmarked) [Example 45] | – | – | 71.5% | 102 nM
45 | COc1ccc2c(c1)Oc1ccccc1C2C(C)(C)C(=O)Nc1nc(-c2ccc(C)c3ccccc23)cs1 (centres unmarked) [Example 46] | – | – | 67.6% | 90.2 nM
46 | COc1ccc(Cc2csc(NC(=O)C(C)(C)C3c4ccccc4Oc4cc(OC)ccc43)n2)cc1 (centres unmarked) [Example 49] | – | – | 68.8% | 40.3 nM
47 | COc1ccc2c(c1)Oc1ccccc1C2C(C)(C)C(=O)Nc1nc(Cc2ccc(Br)cc2)cs1 (centres unmarked) [Example 50] | – | – | 74.8% | 165 nM
48 | COc1ccc2c(c1)Oc1ccccc1C2C(C)(C)C(=O)Nc1nc(Cc2ccc(-c3ccncc3)cc2)cs1 (centres unmarked) [Example 51] | – | – | 77.9% | 6.87 nM
49 | COc1ccc2c(c1)Oc1ccccc1C2C(C)(C)C(=O)Nc1nc(-c2cccc3ccccc23)cs1 (centres unmarked) [Example 52] | – | – | 70.8% | 213 nM
50 | COc1ccc(Cc2csc(NC(=O)C(C)(C)C3c4ccccc4Oc4cc(OC)ccc43)n2)cc1 (centres unmarked) [Example 53] | 78.5 nM | 72.00% | – | –
51 | COc1ccc2c(c1)Oc1ccccc1[C@H]2C(C)(C)C(=O)Nc1nc(Cc2ccc(-c3ccncc3)cc2)cs1 [Example 54] | – | – | 71.4% | 13.1 nM
52 | COc1ccc2c(c1)Oc1ccccc1[C@H]2C(C)(C)C(=O)Nc1nc(Cc2ccc(-c3cccnc3)cc2)cs1 [Example 55] | – | – | 75.5% | 21.5 nM
53 | COc1ccc(Cc2csc(NC(=O)C(C)(C)[C@H]3c4ccccc4Oc4cc(OC)ccc43)n2)cc1 [Example 57] | – | – | 74.8% | 11.5 nM
54 | COc1ccc2c(c1)Oc1ccccc1[C@@H]2C(C)(C)C(=O)Nc1nc(Cc2ccc(-c3ccncc3)cc2)cs1 [Example 58] | – | – | 70% | 3.71 nM
55 | COc1ccc2c(c1)Oc1ccccc1[C@@H]2C(C)(C)C(=O)Nc1nc(Cc2ccc(-c3cccnc3)cc2)cs1 [Example 59] | – | – | 58.4% | 11.8 nM
56 | CC(C)(C(=O)Nc1nc(-c2ccc(F)c3ccccc23)cs1)C1c2ccccc2Oc2ncccc21 (centres unmarked) [Example 63] | – | – | 75.8% | –
57 | CC(C)(C(=O)Nc1nc(Cc2ccc(-c3ccncc3)cc2)cs1)C1c2ccccc2Oc2ncccc21 (centres unmarked) [Example 64] | – | – | 79.3% | 19.9 nM
58 | CC(C)(C(=O)Nc1nncs1)C1c2ccccc2Oc2ncccc21 (centres unmarked) [Example 65] | – | – | 32.2% | 345 nM
59 | CC(C)(C(=O)Nc1nc(-c2ccc(F)c3ccccc23)cs1)C1c2ccccc2Oc2nc(Cl)ccc21 (centres unmarked) [Example 73] | – | – | 60.6% | 735 nM
